Reference: US11261196B2, “Salt serving as AKT inhibitor and crystal thereof” (HARBIN ZHENBAO PHARMACEUTICAL CO., LTD., priority 2017, dated 2022)
Values joined by “and” are separate entries in the source; they are usually repeats but may differ in a detail not shown here. Identical values can stand only once. “Also recorded” adds a separate entry of the source. Like-named read-outs stand apart in the source and are kept apart here.

Experiments:
[1] = Stability test of the crystal form (accelerated conditions, HPLC related substances); assay type: physicochemical
Description: […] The sample was analyzed after 10 days, 1 month and 2 months.
1.2 Preparation of Diluent and Mobile Phase
Diluent: acetonitrile:water (1:1) was used as diluent
For example: 100 mL of pure water and 100 mL of pure acetonitrile were mixed in a glass bottle, followed by degassing with ultrasound for 10 minutes, then cooled down to room temperature.
Mobile phase A: 0.1% phosphoric acid aqueous solution
For example: 2.0 mL phosphoric acid was added into 2000 mL water, followed by ultrasound treatment for 10 minutes, the solution was mixed well and cooled down to room temperature as mobile phase A.
Mobile phase B: acetonitrile
Acetonitrile was used as mobile phase B.
1.3 Preparation of the Reference Solution (0.25 mg/mL Calculated by the Free Base)
The sample of the 0th day was used as reference sample, 16 mL of diluent was added thereto, followed by ultrasound treatment for 5 minutes, and the solution was mixed well. Then the solution was further subjected to 1-fold dilution and marked as STD-1 and STD-2, respectively.
1.4 Preparation of Sample Solution for Testing Sensitivity
Reference solution STD-1 (the sample of the 0th day) was subjected to 2000-fold dilution, noted as LOQ.
1.5 Preparation of the Sample Solution (0.25 mg/mL Calculated by the Freebase)
The sample was taken out and restored to room temperature and 16 mL diluent was added for dissolution. The solution was further subjected to 1-fold dilution to be used as sample solution to detect the content of related substances.

AKT2 = molecular target: T1, AKT2 (Homo sapiens, UniProt P31751); assay: AKT enzyme activity test (LANCE TR-FRET), AKT2; assay type: biochemical
T1 construct: purchased life technology
T1 sequence (P31751 whole entry): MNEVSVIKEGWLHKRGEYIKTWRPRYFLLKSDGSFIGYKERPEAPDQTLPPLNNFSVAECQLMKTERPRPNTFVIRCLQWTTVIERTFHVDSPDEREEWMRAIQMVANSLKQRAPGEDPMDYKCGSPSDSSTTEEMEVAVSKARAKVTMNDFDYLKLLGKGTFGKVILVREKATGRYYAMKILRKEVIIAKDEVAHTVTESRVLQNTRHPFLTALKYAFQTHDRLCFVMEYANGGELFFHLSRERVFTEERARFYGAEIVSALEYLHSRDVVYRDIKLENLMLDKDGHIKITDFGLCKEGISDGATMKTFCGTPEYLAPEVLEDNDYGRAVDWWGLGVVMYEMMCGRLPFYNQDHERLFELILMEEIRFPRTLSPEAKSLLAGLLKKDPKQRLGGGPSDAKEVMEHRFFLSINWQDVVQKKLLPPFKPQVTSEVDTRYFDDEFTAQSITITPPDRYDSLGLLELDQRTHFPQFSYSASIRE
Source text: (§1) AKT, also known as protein kinase B (PKB), is a serine/threonine specific protein kinase, mainly including AKT1, AKT2 and AKT3. The AKT signaling pathway plays an important role in various cellular processes such as glucose metabolism, apoptosis, cell proliferation transcription and cell migration. This study intends to analyze the inhibitory effect of the crystal form of the compound of formula (I) on the kinase activity of AKT family members.
(§2) In this experiment, the homogeneous time-resolved fluorescence […] energy transfer (LANCE TR-FRET®) method was used. The enzymes, biotinylated polypeptide substrates and the compound to be tested were mixed in the detection plate, and ATP was added to initiate the reaction and the mixture was incubated. After the reaction, EDTA was added to terminate the reaction, and Eu-labeled antibody was added at the same time to carry out the reaction and the reaction was detected. The detection plate was analyzed using Envision from PE Company, and the analysis mode was TR-FRET, the data were expressed by fluorescence signals at 665 nm and 615 nm, respectively.
(§3) Compound preparation: the test compound and the reference compound were diluted with 100% DMSO, the initial concentrations of the compounds were 10 μM, and the compounds were 3-fold gradient diluted into 10 concentrations. […]

[2] = Hygroscopicity test of the crystal form; assay type: physicochemical; conditions: 25° C., 24 hours
Description: Three dry glass weighing bottles (with an outer diameter of 50 mm and a height of 30 mm) with a stopper was placed in a desiccator with saturated ammonium chloride solution at the lower part, the glass weighing bottles were left open, the desiccator was covered with lid, and then the desiccator was placed in a 25° C. incubator and left overnight.
The weighing bottle was weighed precisely after placed overnight, the weight was respectively m1 1, m1 2, m1 3
An appropriate amount of the crystal form of the compound of formula (I) was laid flat in the weighing bottles which was already weighed (with the sample thickness of about 1 mm), and was weighed precisely, the weight was respectively m2 1, m2 2, m2 3.
The weighing bottle was left open and was placed together with the stopper in a desiccator with saturated ammonium chloride solution at the lower part, the weighing bottle was left open, the desiccator was covered with lid, and then the desiccator was placed in a 25° C. incubator for 24 hours.
The weighing bottle was covered with its stopper after placed for 24 hours, and then it was weighed precisely, the weight was respectively m3 1, m3 2, m3 3.
The hygroscopic weight gain was calculated, the calculation formula is as follows: Weight gain percentage=100%×(m3−m2)/(m2−m1)

AKT3 = molecular target: T2, AKT3 (Homo sapiens, UniProt Q9Y243); assay: AKT enzyme activity test (LANCE TR-FRET), AKT3; assay type: biochemical
T2 construct: purchased life technology
T2 sequence (Q9Y243 whole entry): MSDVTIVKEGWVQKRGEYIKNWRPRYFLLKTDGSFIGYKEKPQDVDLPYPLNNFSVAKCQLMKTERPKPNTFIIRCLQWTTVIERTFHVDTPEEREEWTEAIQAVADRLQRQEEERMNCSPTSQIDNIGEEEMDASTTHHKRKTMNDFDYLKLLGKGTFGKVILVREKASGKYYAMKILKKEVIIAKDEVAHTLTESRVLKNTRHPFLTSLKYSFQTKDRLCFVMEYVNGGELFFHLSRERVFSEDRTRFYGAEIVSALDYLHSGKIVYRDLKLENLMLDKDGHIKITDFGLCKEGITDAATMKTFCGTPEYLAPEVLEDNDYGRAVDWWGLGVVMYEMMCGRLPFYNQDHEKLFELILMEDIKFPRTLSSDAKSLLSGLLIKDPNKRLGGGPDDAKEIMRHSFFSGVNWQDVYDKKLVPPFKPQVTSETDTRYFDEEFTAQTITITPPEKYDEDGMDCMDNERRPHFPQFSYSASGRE
Source text: as §1, §2, §3

[3] = Solubility test of the crystal form in different solvents; assay type: physicochemical; conditions: 25±2° C.; for solubility at 30 min: 25 °C, thermodynamic from solid, read-out: Solubility classification
Description: 10 mg of the crystal form of the compound of formula (I) was weighed accurately and placed in a glass bottle, 1 mL solvent was added thereto, the solution was shaken vigorously for 30 seconds every 5 minutes under 25±2° C., the dissolution phenomenon within 30 minutes was observed. The corresponding data was recorded. 1 mg of the insoluble sample in step 2.1 was weighed accurately and placed in a glass bottle, a suitable solvent was added thereto, the solution was shaken vigorously for 30 seconds every 5 minutes under 25±2° C., the dissolution phenomenon within 30 minutes was observed. The corresponding data was recorded. [table]

Q: With `Cc1cnn2c1-c1cc(C(=O)N[C@H](CN)Cc3cccc(F)c3)sc1CCC2.O=C(O)/C=C\C(=O)O` as the molecule, how does the “Impurity content, RRT 1.02” value ([1]; 60° C./75%RH, 10D) read?
A: The value was 0.24%.

Q: What about the “Impurity content, RRT 1.04” value ([1]; 60° C./75%RH, 10D) of the same molecule?
A: The value was 0.07%.

Q: And the “Impurity content, RRT 1.06” value ([1]; 60° C./75%RH, 10D)?
A: Its value is 0.15%.

Q: What about the “Impurity content, RRT 1.21” value ([1]; 60° C./75%RH, 10D) of the same molecule?
A: Its value is 1.46%.

Q: What about the “Impurity content, RRT 1.26” value ([1]; 60° C./75%RH, 10D) of the same molecule?
A: Its value is 0.09%.

Q: And the “TRS (total impurity content)” value ([1]; 60° C./75%RH, 10D)?
A: The value was 3.47%.

Q: And the “Stability” value ([1]; high temperature and high humidity)?
A: Its value is “stable under the conditions of high temperature and high humidity; also recorded: relatively stable, and less affected by heat and humidity”.

Q: What about the “Impurity content, RRT 0.95” value ([1]; −20° C., 1M) of the same molecule?
A: Its value is 0.04%.

Q: And the “Impurity content, RRT 0.98” value ([1]; −20° C., 1M)?
A: The value was 0.11%.

Q: And the “Impurity content, RRT 0.99” value ([1]; −20° C., 1M)?
A: Its value is 1.38%.

Q: What about the “Impurity content, RRT 1.02” value ([1]; −20° C., 1M) of the same molecule?
A: The value was 0.22%.

Q: And the “Impurity content, RRT 1.04” value ([1]; −20° C., 1M)?
A: Its value is 0.05%.

Q: What about the “Impurity content, RRT 1.21” value ([1]; −20° C., 1M) of the same molecule?
A: Its value is 1.52%.

Q: And the “Impurity content, RRT 1.26” value ([1]; −20° C., 1M)?
A: Its value is 0.07%.

Q: And the “TRS (total impurity content)” value ([1]; −20° C., 1M)?
A: The value was 3.38%.

Q: And the “Impurity content, RRT 0.95” value ([1]; −20° C., 2M)?
A: Its value is 0.04%.

Q: What about the “Impurity content, RRT 0.98” value ([1]; −20° C., 2M) of the same molecule?
A: The value was 0.10%.

Q: What about the “Impurity content, RRT 0.99” value ([1]; −20° C., 2M) of the same molecule?
A: The value was 1.35%.

Q: And the “Impurity content, RRT 1.02” value ([1]; −20° C., 2M)?
A: Its value is 0.19%.

Q: And the “Impurity content, RRT 1.04” value ([1]; −20° C., 2M)?
A: Its value is 0.04%.

Q: What about the “Impurity content, RRT 1.21” value ([1]; −20° C., 2M) of the same molecule?
A: Its value is 1.51%.

Q: What about the “Impurity content, RRT 1.26” value ([1]; −20° C., 2M) of the same molecule?
A: Its value is 0.10%.

Q: What about the “Impurity content, RRT 1.43” value ([1]; −20° C., 2M) of the same molecule?
A: Its value is 0.05%.

Q: And the “TRS (total impurity content)” value ([1]; −20° C., 2M)?
A: Its value is 3.38%.

Q: What about the “Impurity content, RRT 0.95” value ([1]; −20° C., 10D) of the same molecule?
A: The value was 0.04%.

Q: And the “Impurity content, RRT 0.98” value ([1]; −20° C., 10D)?
A: The value was 0.10%.

Q: What about the “Impurity content, RRT 0.99” value ([1]; −20° C., 10D) of the same molecule?
A: The value was 1.37%.

Q: What about the “Impurity content, RRT 1.02” value ([1]; −20° C., 10D) of the same molecule?
A: The value was 0.29%.

Q: And the “Impurity content, RRT 1.04” value ([1]; −20° C., 10D)?
A: The value was 0.07%.

Q: And the “Impurity content, RRT 1.21” value ([1]; −20° C., 10D)?
A: The value was 1.47%.

Q: And the “Impurity content, RRT 1.26” value ([1]; −20° C., 10D)?
A: Its value is 0.05%.

Q: What about the “TRS (total impurity content)” value ([1]; −20° C., 10D) of the same molecule?
A: The value was 3.39%.

Q: And the “inhibition effect against the activity of AKT2 kinase” value (AKT2)?
A: The value was “strong inhibition effect”.

Q: What about the IC50 (AKT2; Akt2 2 nM, ATP 360 μM, read-out: IC50 of inhibition on kinase activity, AKT2) of the same molecule?
A: Its IC50 is 50.3 nM.

Q: And the Hygroscopicity scale [2]?
A: The Hygroscopicity scale was “no or almost no hygroscopicity”.

Q: And the “Weight gain percentage, Average” value ([2]; average of 3 samples, saturated ammonium chloride)?
A: Its value is 0.07%.

Q: What about the Weight gain percentage ([2]; single samples 1-3, saturated ammonium chloride) of the same molecule?
A: Its Weight gain percentage is 0.05% and 0.12% and 0.04%.

Q: What about the “inhibition effect against the activity of AKT3 kinase” value (AKT3) of the same molecule?
A: The value was “strong inhibition effect”.

Q: And the IC50 (AKT3; Akt3 2 nM, ATP 160 μM, read-out: IC50 of inhibition on kinase activity, AKT3)?
A: Its IC50 is 90.4 nM.

Q: What about the Solubility classification ([3]; 0.1N HCl) of the same molecule?
A: The Solubility classification was “barely soluble or insoluble”.

Q: And the Solubility classification ([3]; 0.1N NaOH)?
A: The Solubility classification was “barely soluble or insoluble”.

Q: And the solubility at 30 min ([3]; aqueous buffer, 0.1N NaOH)?
A: The solubility at 30 min was under 0.1 mg/mL.

Q: What about the solubility at 30 min ([3]; organic solvent or mixture, Acetonitrile) of the same molecule?
A: The solubility at 30 min was under 0.1 mg/mL.

Q: And the solubility at 30 min ([3]; organic solvent or mixture, Dimethyl sulfoxide)?
A: Its solubility at 30 min is 100 to 1000 mg/mL.

Q: What about the solubility at 30 min ([3]; organic solvent or mixture, Methanol) of the same molecule?
A: The solubility at 30 min was 1 to 10 mg/mL.

Q: What about the solubility at 30 min ([3]; organic solvent or mixture, N-Methylpyrrolidone) of the same molecule?
A: Its solubility at 30 min is 100 to 1000 mg/mL.

Q: What about the solubility at 30 min ([3]; simulated gastric fluid, 0.1N HCl) of the same molecule?
A: Its solubility at 30 min is 0.1 to 1 mg/mL.

Q: What about the solubility at 30 min ([3]; Water) of the same molecule?
A: The solubility at 30 min was under 0.1 mg/mL.

Q: What about the Solubility classification ([3]; Acetonitrile) of the same molecule?
A: Its Solubility classification is “barely soluble or insoluble”.

Q: What about the Solubility classification ([3]; Dimethyl sulfoxide) of the same molecule?
A: The Solubility classification was “quite soluble”.

Q: And the Solubility classification ([3]; Methanol)?
A: The Solubility classification was “slightly soluble”.

Q: What about the Solubility classification ([3]; N-Methylpyrrolidone) of the same molecule?
A: Its Solubility classification is “quite soluble”.

Q: What about the Solubility classification ([3]; Water) of the same molecule?
A: The Solubility classification was “barely soluble or insoluble”.
